Experimental data from patent publication US4169096A, “Antibiotic compounds” (priority 1977, dated 1979).
Values after ≈ are worked out from the molar mass of the structure shown. Read-outs that look alike come from different tables or passages of the source.

Tests used:
[1] = system: Diplococcus pneumoniae A9585; assay: MIC, serial two-fold agar dilution, aerobic bacteria; assay type: cell-based; conditions: Streptococcus pneumoniae, GC medium (Eiken)
[2] = system: Streptococcus viridans A21354; assay: as above; assay type: cell-based; conditions: GC medium (Eiken)
C. perfringens A9635 [3] = assay: animal or person; assay type: in vivo, mice
[4] = system: Peptocuccus prevotii ATCC 9321; assay: microbe, parasite or virus in culture
[5] = system: Bacillus cereus ATCC 10702 A; assay: MIC, serial two-fold agar dilution, aerobic bacteria; assay type: cell-based; conditions: ATCC10702
[6] = system: Sphaerophorus pseudonecrophorus A20013; assay: microbe, parasite or virus in culture; conditions: Fusobacterium necrophorum
[7] = pKa' by titration in aqueous ethanol; assay type: physicochemical; conditions: 50% aqueous ethanol
[8] = system: Fusobacterium varium ATCC 8501; assay: microbe, parasite or virus in culture; conditions: ATCC8501
C. perfringens A9635 [9] = assay: microbe, parasite or virus in culture; assay type: cell-based; conditions: Clostridium perfringens

## COC(=O)C1C(C)OC2(C)CC(=O)C3OC12OC(C(C)/C=C(C)/C=C/C(=O)C1=C(O)CN(C)C1=O)C3C (centres unmarked) [Bu-2313A]
[1]
  MIC: 0.8 µg/mL (≈ 1.55 µM)
[2]
  MIC: 0.8 µg/mL (≈ 1.55 µM)
C. perfringens A9635 [3]; Clostridium perfringens, A9635, in Mus musculus, sc, 120 h, read-out: PD50
  ED50: 6.25 mg/kg
C. perfringens A9635 [3]; po, just before challenge, determined after 5 days, NA: no activity
  PD50: NA at 50
[4]
  MIC: 0.2 µg/mL (≈ 0.386 µM)
[5]
  MIC: 0.8 µg/mL (≈ 1.55 µM)
[6]
  MIC: 0.2 µg/mL (≈ 0.386 µM)
[7]
  pKa: 5.2
[8]
  MIC: 0.1 µg/mL (≈ 0.193 µM)
C. perfringens A9635 [9]; A9635, read-out: MIC in GAM broth, inoculum size […] 10^5 cell/ml
  MIC: 0.1 µg/mL (≈ 0.193 µM)
C. perfringens A9635 [9]; A9635, read-out: MIC in GAM broth, inoculum size […] 10^6 cell/ml
  MIC: 100 µg/mL (≈ 193 µM)
